Test results from publication PMC9090415, “Discovery of small molecule inhibitors of Plasmodium falciparum apicoplast DNA polymerase” (Journal of Enzyme Inhibition and Medicinal Chemistry, 2022).

Biological target: T1, bacteriophage T4 DNA polymerase (Enterobacteria phage T4, UniProt P04415)
T1 construct: made in house
T1 sequence (P04415 1-898): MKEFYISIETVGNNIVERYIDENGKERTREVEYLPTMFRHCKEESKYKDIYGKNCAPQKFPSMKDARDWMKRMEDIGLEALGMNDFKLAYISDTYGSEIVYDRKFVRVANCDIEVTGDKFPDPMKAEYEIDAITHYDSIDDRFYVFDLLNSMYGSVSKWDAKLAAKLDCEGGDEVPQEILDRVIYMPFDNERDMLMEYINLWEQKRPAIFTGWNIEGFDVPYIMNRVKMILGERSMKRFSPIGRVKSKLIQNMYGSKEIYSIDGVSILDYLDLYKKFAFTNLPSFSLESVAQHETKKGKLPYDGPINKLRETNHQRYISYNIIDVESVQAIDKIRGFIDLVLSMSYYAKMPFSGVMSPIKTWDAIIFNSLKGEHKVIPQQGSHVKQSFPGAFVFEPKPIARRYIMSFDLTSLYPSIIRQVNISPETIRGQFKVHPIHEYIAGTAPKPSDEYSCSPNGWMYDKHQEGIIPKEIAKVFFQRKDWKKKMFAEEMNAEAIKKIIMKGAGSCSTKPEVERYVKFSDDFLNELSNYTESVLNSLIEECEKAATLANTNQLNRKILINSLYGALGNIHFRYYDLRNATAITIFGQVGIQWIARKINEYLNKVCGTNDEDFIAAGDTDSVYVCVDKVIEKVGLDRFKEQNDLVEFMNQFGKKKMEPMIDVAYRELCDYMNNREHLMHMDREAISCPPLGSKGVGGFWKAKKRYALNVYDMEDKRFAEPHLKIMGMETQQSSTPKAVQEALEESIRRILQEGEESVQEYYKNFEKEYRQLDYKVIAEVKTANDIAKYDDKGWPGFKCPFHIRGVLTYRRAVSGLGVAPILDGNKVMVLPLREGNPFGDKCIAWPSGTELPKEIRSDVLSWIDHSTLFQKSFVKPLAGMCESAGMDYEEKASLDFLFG
Assay: Counter-screen against bacteriophage T4 DNA polymerase
Format: biochemical
Details: for % inhibition T4 10' 2.5 / % inhibition T4 10' 5 / % inhibition T4 10' 10 / % inhibition T4 10' 20 / % inhibition T4 10' 40 / % inhibition T4 10' 80: read at 10'; for % inhibition T4 10' 2.5 / % inhibition T4 70' 2.5 / % inhibition T4 130' 2.5 / % inhibition T4 40' 2.5 / % inhibition T4 90' 2.5 / % inhibition T4 180' 2.5: concentration 2.5; for % inhibition T4 10' 5 / % inhibition T4 70' 5 / % inhibition T4 130' 5 / % inhibition T4 40' 5 / % inhibition T4 90' 5 / % inhibition T4 180' 5: concentration 5; for % inhibition T4 10' 10 / % inhibition T4 70' 10 / % inhibition T4 130' 10 / % inhibition T4 40' 10 / % inhibition T4 90' 10 / % inhibition T4 180' 10: concentration 10; for % inhibition T4 10' 20 / % inhibition T4 70' 20 / % inhibition T4 130' 20 / % inhibition T4 40' 20 / % inhibition T4 90' 20 / % inhibition T4 180' 20: concentration 20; for % inhibition T4 10' 40 / % inhibition T4 70' 40 / % inhibition T4 130' 40 / % inhibition T4 40' 40 / % inhibition T4 90' 40 / % inhibition T4 180' 40: concentration 40; for % inhibition T4 10' 80 / % inhibition T4 70' 80 / % inhibition T4 130' 80 / % inhibition T4 40' 80 / % inhibition T4 90' 80 / % inhibition T4 180' 80: concentration 80; for % inhibition T4 70' 2.5 / % inhibition T4 70' 5 / % inhibition T4 70' 10 / % inhibition T4 70' 20 / % inhibition T4 70' 40 / % inhibition T4 70' 80: read at 70'; for % inhibition T4 130' 2.5 / % inhibition T4 130' 5 / % inhibition T4 130' 10 / % inhibition T4 130' 20 / % inhibition T4 130' 40 / % inhibition T4 130' 80: read at 130'; for % inhibition T4 40' 2.5 / % inhibition T4 40' 5 / % inhibition T4 40' 10 / % inhibition T4 40' 20 / % inhibition T4 40' 40 / % inhibition T4 40' 80: read at 40'; for % inhibition T4 90' 2.5 / % inhibition T4 90' 5 / % inhibition T4 90' 10 / % inhibition T4 90' 20 / % inhibition T4 90' 40 / % inhibition T4 90' 80: read at 90'; for % inhibition T4 180' 2.5 / % inhibition T4 180' 5 / % inhibition T4 180' 10 / % inhibition T4 180' 20 / % inhibition T4 180' 40 / % inhibition T4 180' 80: read at 180'
Protocol: Codon-optimized, exonuclease-deficient Pf-apPOL was overexpressed in E. coli BL21 (DE3) and purified as described. The protein was dialysed against two, 1-liter changes of 20 mM Tris-HCl (pH 8.0), 400 mM NaCl, and 20% glycerol. Plasmodium bergei and Babesia bovis apPOLs (Pb-apPOL and Bb-apPOL, respectively) were codon-optimized, expressed, and purified as for Pf-apPOL[15]. Bacteriophage T4 DNA polymerase was purified as described. The DNA oligonucleotides used to make the high-throughput substrate were obtained from Integrated DNA Technologies. Deoxynucleotides were purchased from Strategene. All other materials came from Fisher Scientific.
Each compound was tested in a dose-response format to determine IC50 values. […] T4 DNA polymerase can be produced in large quantities, and is in the same family (B-family) as the replicative human DNA polymerases (α, δ, and ε)[20].

SMILES: O=C(CCc1csc(NC(=O)Nc2ccccc2)n1)Nc1nc2ccccc2s1 [KU0177354]
- % inhibition T4 10' 2.5 (DRC-1): 0.07751%
- % inhibition T4 10' 5 (DRC-1): 7.751%
- % inhibition T4 10' 10 (DRC-1): 13.5789%
- % inhibition T4 10' 20 (DRC-1): 14.0599%
- % inhibition T4 10' 40 (DRC-1): 17.0084%
- % inhibition T4 10' 80 (DRC-1): 35.4647%
- % inhibition T4 70' 2.5 (DRC-1): 1.62%
- % inhibition T4 70' 5 (DRC-1): 6.65%
- % inhibition T4 70' 10 (DRC-1): 12.106%
- % inhibition T4 70' 20 (DRC-1): 12.7058%
- % inhibition T4 70' 40 (DRC-1): 16.9924%
- % inhibition T4 70' 80 (DRC-1): 32.2475%
- % inhibition T4 130' 2.5 (DRC-1): -0.4187%
- % inhibition T4 130' 5 (DRC-1): 3.945%
- % inhibition T4 130' 10 (DRC-1): 9.972%
- % inhibition T4 130' 20 (DRC-1): 11.4415%
- % inhibition T4 130' 40 (DRC-1): 15.4247%
- % inhibition T4 130' 80 (DRC-1): 30.1254%
- % inhibition T4 10' 2.5 (DRC-2): -8%
- % inhibition T4 10' 5 (DRC-2): 2.7%
- % inhibition T4 10' 10 (DRC-2): 9%
- % inhibition T4 10' 20 (DRC-2): 6.49%
- % inhibition T4 10' 40 (DRC-2): 5.57%
- % inhibition T4 10' 80 (DRC-2): 11%
- % inhibition T4 40' 2.5 (DRC-2): -8%
- % inhibition T4 40' 5 (DRC-2): 2%
- % inhibition T4 40' 10 (DRC-2): 9%
- % inhibition T4 40' 20 (DRC-2): 5.69%
- % inhibition T4 40' 40 (DRC-2): 5%
- % inhibition T4 40' 80 (DRC-2): 14%
- % inhibition T4 90' 2.5 (DRC-2): -7%
- % inhibition T4 90' 5 (DRC-2): 3%
- % inhibition T4 90' 10 (DRC-2): 8.56%
- % inhibition T4 90' 20 (DRC-2): 5.54%
- % inhibition T4 90' 40 (DRC-2): 5%
- % inhibition T4 90' 80 (DRC-2): 17%
- % inhibition T4 180' 2.5 (DRC-2): -11%
- % inhibition T4 180' 5 (DRC-2): -1.4%
- % inhibition T4 180' 10 (DRC-2): 3%
- % inhibition T4 180' 20 (DRC-2): 1.84%
- % inhibition T4 180' 40 (DRC-2): 2.2%
- % inhibition T4 180' 80 (DRC-2): 18%

SMILES: CCCc1ccc(Oc2coc3cc(OC)ccc3c2=O)cc1 [KU0193249]
- % inhibition T4 10' 2.5 (DRC-1): 1.7455%
- % inhibition T4 10' 5 (DRC-1): -0.5189%
- % inhibition T4 10' 10 (DRC-1): 7.431%
- % inhibition T4 10' 20 (DRC-1): -2.718%
- % inhibition T4 10' 40 (DRC-1): 4.024%
- % inhibition T4 10' 80 (DRC-1): -14.455%
- % inhibition T4 70' 2.5 (DRC-1): 0.7287%
- % inhibition T4 70' 5 (DRC-1): -0.7228%
- % inhibition T4 70' 10 (DRC-1): 6.283%
- % inhibition T4 70' 20 (DRC-1): -2.8267%
- % inhibition T4 70' 40 (DRC-1): 4.61%
- % inhibition T4 70' 80 (DRC-1): -10.3998%
- % inhibition T4 130' 2.5 (DRC-1): -0.4639%
- % inhibition T4 130' 5 (DRC-1): -1.759%
- % inhibition T4 130' 10 (DRC-1): 5.142%
- % inhibition T4 130' 20 (DRC-1): -2.066%
- % inhibition T4 130' 40 (DRC-1): 4.723%
- % inhibition T4 130' 80 (DRC-1): -9.229%
- % inhibition T4 10' 2.5 (DRC-2): 9%
- % inhibition T4 10' 5 (DRC-2): -2.34%
- % inhibition T4 10' 10 (DRC-2): 0.369%
- % inhibition T4 10' 20 (DRC-2): -9%
- % inhibition T4 10' 40 (DRC-2): -1.47%
- % inhibition T4 10' 80 (DRC-2): -4.57%
- % inhibition T4 40' 2.5 (DRC-2): 9%
- % inhibition T4 40' 5 (DRC-2): -2.34%
- % inhibition T4 40' 10 (DRC-2): 0.369%
- % inhibition T4 40' 20 (DRC-2): -9%
- % inhibition T4 40' 40 (DRC-2): -1.47%
- % inhibition T4 40' 80 (DRC-2): -4.57%
- % inhibition T4 90' 2.5 (DRC-2): 8%
- % inhibition T4 90' 5 (DRC-2): -2.2%
- % inhibition T4 90' 10 (DRC-2): -0.214%
- % inhibition T4 90' 20 (DRC-2): -7%
- % inhibition T4 90' 40 (DRC-2): 0.714%
- % inhibition T4 90' 80 (DRC-2): -1.8%
- % inhibition T4 180' 2.5 (DRC-2): 1.43%
- % inhibition T4 180' 5 (DRC-2): -7%
- % inhibition T4 180' 10 (DRC-2): -5%
- % inhibition T4 180' 20 (DRC-2): -10%
- % inhibition T4 180' 40 (DRC-2): -1.19%
- % inhibition T4 180' 80 (DRC-2): -4%

SMILES: CC(C)CC(C(=O)O)N1C(=O)C2C3C=CC(C2C1=O)C1C(=O)N(C(CC(C)C)C(=O)O)C(=O)C31 (stereo not drawn) [KU0193449]
- % inhibition T4 10' 2.5 (DRC-1): 3.278%
- % inhibition T4 10' 5 (DRC-1): 4.491%
- % inhibition T4 10' 10 (DRC-1): 8.777%
- % inhibition T4 10' 20 (DRC-1): 7.866%
- % inhibition T4 10' 40 (DRC-1): 21.6809%
- % inhibition T4 10' 80 (DRC-1): 52.1619%
- % inhibition T4 70' 2.5 (DRC-1): 0.3673%
- % inhibition T4 70' 5 (DRC-1): 1.3204%
- % inhibition T4 70' 10 (DRC-1): 2.619%
- % inhibition T4 70' 20 (DRC-1): 3.878%
- % inhibition T4 70' 40 (DRC-1): 15.5336%
- % inhibition T4 70' 80 (DRC-1): 40.8979%
- % inhibition T4 130' 2.5 (DRC-1): -2.364%
- % inhibition T4 130' 5 (DRC-1): -1.909%
- % inhibition T4 130' 10 (DRC-1): -0.6043%
- % inhibition T4 130' 20 (DRC-1): 0.2689%
- % inhibition T4 130' 40 (DRC-1): 11.2312%
- % inhibition T4 130' 80 (DRC-1): 34.0378%
- % inhibition T4 10' 2.5 (DRC-2): 4.54%
- % inhibition T4 10' 5 (DRC-2): 4.24%
- % inhibition T4 10' 10 (DRC-2): 10%
- % inhibition T4 10' 20 (DRC-2): 15%
- % inhibition T4 10' 40 (DRC-2): 28%
- % inhibition T4 10' 80 (DRC-2): 55%
- % inhibition T4 40' 2.5 (DRC-2): 4.54%
- % inhibition T4 40' 5 (DRC-2): 4.24%
- % inhibition T4 40' 10 (DRC-2): 10%
- % inhibition T4 40' 20 (DRC-2): 15%
- % inhibition T4 40' 40 (DRC-2): 28%
- % inhibition T4 40' 80 (DRC-2): 55%
- % inhibition T4 90' 2.5 (DRC-2): 4%
- % inhibition T4 90' 5 (DRC-2): 3%
- % inhibition T4 90' 10 (DRC-2): 7%
- % inhibition T4 90' 20 (DRC-2): 11%
- % inhibition T4 90' 40 (DRC-2): 24%
- % inhibition T4 90' 80 (DRC-2): 52%
- % inhibition T4 180' 2.5 (DRC-2): -1%
- % inhibition T4 180' 5 (DRC-2): -1.88%
- % inhibition T4 180' 10 (DRC-2): 0.586%
- % inhibition T4 180' 20 (DRC-2): 2.64%
- % inhibition T4 180' 40 (DRC-2): 15%
- % inhibition T4 180' 80 (DRC-2): 45%
